Assay results published in patent publication US12551482B2, “Aurora kinase inhibitors” (The Regents of the University of California, priority 2013, dated 2026).
“Also recorded” adds a separate entry of the source. Like-named read-outs stand apart in the source and are kept apart here.

Experiments:
MKN45 = experiment: Cancer cell line profiling, Genomics of Drug Sensitivity Project
HSC-39 = experiment: as above; settings: read-out: CD532 EC50 (uM)
MZ2-MEL. = experiment: as above; settings: read-out: CD532 EC50 (uM)
OSC-20 = experiment: as above; settings: read-out: CD532 EC50 (uM)
ACN = experiment: as above; settings: read-out: CD532 EC50 (uM)
SCC-4 = experiment: as above; settings: Homo sapiens, SCC-4, read-out: CD532 EC50 (uM)
GAK = experiment: as above; settings: read-out: CD532 EC50 (uM)
c-MYC = c-MYC protein by immunoblot in c-MYC expressing cancer cell lines; assay type: cell-based
IPC-298 = experiment: Cancer cell line profiling, Genomics of Drug Sensitivity Project; settings: Homo sapiens, IPC-298, read-out: CD532 EC50 (uM)
HTC-C3 = experiment: as above; settings: Homo sapiens, HTC-C3, read-out: CD532 EC50 (uM)
GT3TKB = experiment: as above; settings: read-out: CD532 EC50 (uM)
JHH-7 = experiment: as above; settings: JHH7, read-out: CD532 EC50 (uM)
5637 = experiment: as above; settings: read-out: CD532 EC50 (uM)
MYCN = experiment: MYCN-amplified neuroblastoma xenografts, MYCN protein in tumors; assay type: in vivo; settings: mice treated daily for 2 days with 60 mg/kg
Description: Mice were injected intraperitoneally as described. For determining tumor volume, for example in medulloblastoma model mice, mice were euthanized once maximum tumor length exceeded 2.0 cm, per IACUC protocol (IACUC, Institutional Animal Care and Use Committee).

LB996-RCC = experiment: Cancer cell line profiling, Genomics of Drug Sensitivity Project; settings: read-out: CD532 EC50 (uM)
LB771-HNC = experiment: as above; settings: read-out: CD532 EC50 (uM)
LS-123 = experiment: as above; settings: Homo sapiens, LS-123, read-out: CD532 EC50 (uM)
MYCN-Aurora A complex = target: T1, MYCN-Aurora A complex (Homo sapiens, UniProt O14965); experiment: Pulldown of MYCN and immunoblot for Aurora A; assay type: cell-based; settings: MYCN-amplified IMR32 cells, 4 hrs MG-132, 2 hrs drug, increasing concentrations
T1 construct: Representative immunoprecipitation of MYCN and immunoblots from MYCN-amplified IMR32 cells; endogenous in cells

COLO-829 = experiment: Cancer cell line profiling, Genomics of Drug Sensitivity Project; settings: Homo sapiens, COLO-829, read-out: CD532 EC50 (uM)
OSC-19 = experiment: as above; settings: OSC19, read-out: CD532 EC50 (uM)
tumor-derived cell lines = experiment: Screen of panel of tumor-derived, genetically characterized cell lines; assay type: cell-based
NB5 = experiment: Cancer cell line profiling, Genomics of Drug Sensitivity Project; settings: read-out: CD532 EC50 (uM)
BICR 78 = experiment: as above; settings: read-out: CD532 EC50 (uM)
A431 = experiment: as above; settings: Homo sapiens, A-431, read-out: CD532 EC50 (uM)
WM793B = experiment: as above; settings: read-out: CD532 EC50 (uM)
CAL-62 = experiment: as above; settings: Homo sapiens, CAL-62, read-out: CD532 EC50 (uM)
HMVII = experiment: as above; settings: read-out: CD532 EC50 (uM)
SNU-81 = experiment: as above; settings: read-out: CD532 EC50 (uM)
NB12 = experiment: as above; settings: read-out: CD532 EC50 (uM)
MEL-JUSO = experiment: as above; settings: Homo sapiens, read-out: CD532 EC50 (uM)
NCI-H747 = experiment: as above; settings: Homo sapiens, NCI-H747, read-out: CD532 EC50 (uM)
LB831-BLC = experiment: as above; settings: read-out: CD532 EC50 (uM)
SAT = experiment: as above; settings: read-out: CD532 EC50 (uM)

T1 sequence (O14965 whole entry, one chain of several): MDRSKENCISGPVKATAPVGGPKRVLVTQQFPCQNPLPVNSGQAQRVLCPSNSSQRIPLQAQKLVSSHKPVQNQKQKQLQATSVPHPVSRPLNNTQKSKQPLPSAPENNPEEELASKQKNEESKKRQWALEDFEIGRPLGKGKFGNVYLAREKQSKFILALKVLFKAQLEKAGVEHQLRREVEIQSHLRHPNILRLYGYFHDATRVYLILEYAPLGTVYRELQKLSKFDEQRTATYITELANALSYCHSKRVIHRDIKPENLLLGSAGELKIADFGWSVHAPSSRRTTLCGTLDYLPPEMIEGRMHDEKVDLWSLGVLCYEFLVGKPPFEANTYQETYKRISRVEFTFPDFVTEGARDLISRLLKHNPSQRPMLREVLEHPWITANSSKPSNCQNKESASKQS

`O=C(Nc1ccc(Nc2nccc(Nc3cc(C4CCCC4)[nH]n3)n2)cc1)Nc1cccc(C(F)(F)F)c1` [CD532, 1-(4-((4-((5-cyclopentyl-1H-pyrazol-3-yl)amino)pyrimidin-2-yl)amino)phenyl)-3-(3-(trifluoromethyl)phenyl)urea] showed an EC50 (MKN45; Homo sapiens, MKN-45, read-out: CD532 EC50 (uM), MKN45 cell line, Stomach) of 0.456 µM, an EC50 (MKN45; read-out: CD532 EC50, MKN45 cell line, Stomach) of 0.26 µM and an EC50 (HSC-39) of 0.103 µM. The EC50 (MZ2-MEL.) was 0.434 µM, the EC50 (OSC-20) was 1.23 µM and the EC50 (ACN) was 0.884 µM. For the same compound, the EC50 (SCC-4) was 0.884 µM, the EC50 (GAK) was 0.823 µM and the c-MYC protein (c-MYC; RKO colon cancer cell line) was “effects loss of c-MYC protein”. For the same compound, the c-MYC protein (c-MYC; SUM142 breast cancer cell line) was “effects loss of c-MYC protein”, the c-Myc protein (c-MYC; SUM149 (ER−/PR−) breast cancer cell line) was “loss of c-Myc” and the c-MYC protein (c-MYC; c-MYC-translocated ML-60 leukemia cell line) was “effects loss of c-MYC protein”. For the same compound, the EC50 (IPC-298) was 0.574 µM, the EC50 (HTC-C3) was 0.915 µM and the EC50 (GT3TKB) was 1.05 µM. For the same compound, the EC50 (JHH-7) was 0.766 µM, the EC50 5637 was 0.49 µM and the “MYCN protein in tumors” value (MYCN) was “decreased levels of MYCN protein”. For the same compound, the EC50 (LB996-RCC) was 2.08 µM, the EC50 (LB771-HNC) was 0.916 µM and the EC50 (LS-123) was 0.861 µM. For the same compound, the “MYCN-Aurora A interaction” value (MYCN-Aurora A complex) was “complete and dose-dependent loss of Aurora A/MYCN interaction; also recorded: dose-dependent and complete dissociation of the MYCN-Aurora A complex”, the EC50 (COLO-829) was 0.796 µM and the EC50 (OSC-19) was 1.18 µM. The “susceptibility of MYCN amplified vs non-amplified cell lines” value (tumor-derived cell lines; Wilcoxon Rank Sum test) was “significantly more susceptible to CD532 than non-amplified lines”, the “EC50 values across the panel” value (tumor-derived cell lines; most cell lines) was “nanomolar range” and the EC50 (NB5) was 0.761 µM. For the same compound, the EC50 (BICR 78) was 12.2 µM, the EC50 (A431) was 0.364 µM and the EC50 (WM793B) was 0.705 µM. The EC50 (CAL-62) was 0.589 µM, the EC50 (HMVII) was 0.746 µM and the EC50 (SNU-81) was 0.421 µM. It also gave an EC50 (NB12) of 0.293 µM, an EC50 (MEL-JUSO) of 0.783 µM and an EC50 (NCI-H747) of 0.665 µM. The EC50 (LB831-BLC) was 1.29 µM and the EC50 (SAT) was 1.19 µM.
